Data from PubChem BioAssay AID192 (DTP/NCI, 2004).
Values joined by “and” are separate entries in the source; they are usually repeats but may differ in a detail not shown here. Equal entries are not always repeated. Inconclusive results and toxic doses are left out.

Test system: BDF1 mice, B16 melanoma ip, median survival T/C
Test: NCI In Vivo Anticancer Drug Screen. Data for tumor model B16 Melanoma (intraperitoneal) in B6D2F1 (BDF1) mice
Conditions: endpoint: median survival time, higher = longer survival
How it was run: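 The ratio T/C compares compound-treated mice with vehicle-treated controls, using survival or tumor size as the endpoint in a transplantable tumor model.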

[1] = dose: 12.5 mg/kg/injection, schedule: Q01DX009 (ip), vehicle: saline
[2] = dose: 25.0 mg/kg/injection, schedule: Q01DX009 (ip), vehicle: saline
[3] = dose: 50.0 mg/kg/injection, schedule: Q01DX009 (ip), vehicle: saline
[4] = dose: 100.0 mg/kg/injection, schedule: Q01DX009 (ip), vehicle: saline
[5] = dose: 100.0 mg/kg/injection, schedule: Q01DX009 (ip), vehicle: Klucel (hydroxypropylcellulose) (HPC)
[6] = dose: 200.0 mg/kg/injection, schedule: Q01DX009 (ip), vehicle: Klucel (hydroxypropylcellulose) (HPC)
[7] = dose: 12.5 mg/kg/injection, schedule: Q01DX009 (ip), vehicle: Klucel (hydroxypropylcellulose) (HPC)
[8] = dose: 25.0 mg/kg/injection, schedule: Q01DX009 (ip), vehicle: Klucel (hydroxypropylcellulose) (HPC)
[9] = dose: 50.0 mg/kg/injection, schedule: Q01DX009 (ip), vehicle: Klucel (hydroxypropylcellulose) (HPC)
[10] = dose: 100.0 mg/kg/injection, schedule: Q01DX009 (ip), vehicle: saline with Tween-80
[11] = dose: 200.0 mg/kg/injection, schedule: Q01DX009 (ip), vehicle: saline with Tween-80
[12] = dose: 6.25 mg/kg/injection, schedule: Q01DX009 (ip), vehicle: saline with Tween-80
[13] = dose: 12.5 mg/kg/injection, schedule: Q01DX009 (ip), vehicle: saline with Tween-80
[14] = dose: 25.0 mg/kg/injection, schedule: Q01DX009 (ip), vehicle: saline with Tween-80

CCC(=O)OC1(c2ccccc2)CCN(C)C1C (stereo unspecified)
T/C (dose: 6.25 mg/kg/injection, schedule: Q01DX009 (ip), vehicle: saline): 102 % of control
T/C [1]: 102 % of control
T/C [2]: 95 % of control
T/C [3]: 97 % of control
T/C [4]: 90 % of control

CCC(c1ccc(OC)cc1)C(CC)c1ccc(O)c(CN2CCN(C)CC2)c1 (stereo unspecified)
T/C [2]: 93 % of control
T/C [3]: 97 % of control

Cc1ccn(C(N)=O)n1
T/C [5]: 93 % of control
T/C [6]: 109 % of control

O=S1(=O)CC(Cl)(Br)C1 (tested in a mixture with another compound)
T/C [7]: 105 % of control
T/C [8]: 108 % of control
T/C [9]: 108 % of control
T/C [5]: 93 % of control and 108 % of control

CCN(CC)CCNc1ccc(CO)c2sc3ccccc3c(=O)c12
T/C (dose: 0.25 mg/kg/injection, schedule: Q01DX009 (ip), vehicle: saline): 100 % of control
T/C (dose: 0.5 mg/kg/injection, schedule: Q01DX009 (ip), vehicle: saline): 94 % of control
T/C (dose: 1.0 mg/kg/injection, schedule: Q01DX009 (ip), vehicle: saline): 89 % of control
T/C (dose: 2.0 mg/kg/injection, schedule: Q01DX009 (ip), vehicle: saline): 100 % of control
T/C (dose: 2.4 mg/kg/injection, schedule: Q01DX009 (ip), vehicle: saline with Tween-80): 89 % of control
T/C (dose: 4.8 mg/kg/injection, schedule: Q01DX009 (ip), vehicle: saline with Tween-80): 97 % of control
T/C (dose: 9.5 mg/kg/injection, schedule: Q01DX009 (ip), vehicle: saline with Tween-80): 105 % of control
T/C (dose: 19.0 mg/kg/injection, schedule: Q01DX009 (ip), vehicle: saline with Tween-80): 97 % of control
T/C (dose: 38.0 mg/kg/injection, schedule: Q01DX009 (ip), vehicle: saline with Tween-80): 110 % of control

COc1cc2c(cc1O)C(=O)CCCC2
T/C [10]: 107 % of control
T/C [11]: 101 % of control
T/C (dose: 400.0 mg/kg/injection, schedule: Q01DX009 (ip), vehicle: saline with Tween-80): 89 % of control and 101 % of control

CC(C)(C)OC(=O)CCC(NC(=O)OCc1ccccc1)C(=O)NN (stereo unspecified)
T/C (dose: 75.0 mg/kg/injection, schedule: Q04DX003 (ip), vehicle: Klucel (hydroxypropylcellulose) (HPC)): 97 % of control
T/C (dose: 150.0 mg/kg/injection, schedule: Q04DX003 (ip), vehicle: Klucel (hydroxypropylcellulose) (HPC)): 100 % of control
T/C (dose: 300.0 mg/kg/injection, schedule: Q04DX003 (ip), vehicle: Klucel (hydroxypropylcellulose) (HPC)): 97 % of control

[N-]=[N+]=C1C(=O)NN=C1c1ccccc1
T/C [5]: 105 % of control

C=CCc1cc2c(C)cc(=O)oc2c(C)c1OC(C)=O
T/C (dose: 100.0 mg/kg/injection, schedule: Q04DX003 (ip), vehicle: gum acacia): 95 % of control
T/C (dose: 200.0 mg/kg/injection, schedule: Q04DX003 (ip), vehicle: gum acacia): 86 % of control
T/C (dose: 400.0 mg/kg/injection, schedule: Q04DX003 (ip), vehicle: gum acacia): 86 % of control

CCOC(=O)c1cnc(NN)nc1Nc1cc(Cl)cc(Cl)c1
T/C [12]: 97 % of control
T/C [13]: 101 % of control
T/C [14]: 91 % of control

NC(CCC(=O)NCC(=O)O)C(=O)O (stereo unspecified)
T/C [3]: 92 % of control
T/C [4]: 91 % of control
T/C (dose: 200.0 mg/kg/injection, schedule: Q01DX009 (ip), vehicle: saline): 101 % of control
T/C (dose: 400.0 mg/kg/injection, schedule: Q01DX009 (ip), vehicle: saline): 88 % of control

CN(C)CCCN=Cc1cc(Cl)ccc1O.CN(C)CCCN=Cc1cc(Cl)ccc1O.[Ni+2]
T/C [12]: 122 % of control
T/C [13]: 116 % of control
T/C [14]: 111 % of control

CCCC1(CCC)CN(CO)C1=O
T/C [1]: 100 % of control
T/C [2]: 100 % of control
T/C [3]: 106 % of control
T/C [4]: 111 % of control
T/C (dose: 200.0 mg/kg/injection, schedule: Q04DX003 (ip), vehicle: saline): 91 % of control

CCCCNC(=O)Nc1ccc(C(=O)OCC(C)C)cc1
T/C [10]: 99 % of control
T/C [11]: 96 % of control

CCOC(=O)c1ccc(NC(=O)Nc2nccs2)cc1
T/C (dose: 6.25 mg/kg/injection, schedule: Q01DX009 (ip), vehicle: Klucel (hydroxypropylcellulose) (HPC)): 102 % of control
T/C (dose: 6.25 mg/kg/injection, schedule: Q01DX009 (oral), vehicle: Klucel (hydroxypropylcellulose) (HPC)): 113 % of control
T/C [7]: 99 % of control
T/C [13]: 110 % of control
T/C (dose: 12.5 mg/kg/injection, schedule: Q01DX009 (oral), vehicle: Klucel (hydroxypropylcellulose) (HPC)): 108 % of control
T/C (dose: 12.5 mg/kg/injection, schedule: Q01DX009 (oral), vehicle: saline with Tween-80): 107 % of control
T/C [8]: 96 % of control
T/C (dose: 25.0 mg/kg/injection, schedule: Q01DX009 (oral), vehicle: Klucel (hydroxypropylcellulose) (HPC)): 110 % of control
T/C (dose: 25.0 mg/kg/injection, schedule: Q01DX009 (oral), vehicle: saline with Tween-80): 109 % of control
T/C [9]: 96 % of control
T/C (dose: 50.0 mg/kg/injection, schedule: Q01DX009 (oral), vehicle: Klucel (hydroxypropylcellulose) (HPC)): 119 % of control
T/C (dose: 50.0 mg/kg/injection, schedule: Q01DX009 (oral), vehicle: saline with Tween-80): 106 % of control
T/C [5]: 114 % of control
T/C (dose: 100.0 mg/kg/injection, schedule: Q01DX009 (oral), vehicle: Klucel (hydroxypropylcellulose) (HPC)): 102 % of control
T/C (dose: 100.0 mg/kg/injection, schedule: Q01DX009 (oral), vehicle: saline with Tween-80): 119 % of control
T/C [6]: 113 % of control
T/C (dose: 200.0 mg/kg/injection, schedule: Q01DX009 (oral), vehicle: Klucel (hydroxypropylcellulose) (HPC)): 99 % of control
T/C (dose: 200.0 mg/kg/injection, schedule: Q01DX009 (oral), vehicle: saline with Tween-80): 112 % of control
T/C (dose: 400.0 mg/kg/injection, schedule: Q01DX009 (oral), vehicle: saline with Tween-80): 110 % of control

O=c1c(O)c(-c2ccc(O)c(O)c2)oc2cc(O)cc(O)c12
T/C (dose: 25.0 mg/kg/injection, schedule: Q02DX009 (ip), vehicle: saline): 89 % of control
T/C (dose: 50.0 mg/kg/injection, schedule: Q02DX009 (ip), vehicle: saline): 88 % of control
T/C (dose: 100.0 mg/kg/injection, schedule: Q02DX009 (ip), vehicle: saline): 93 % of control
T/C (dose: 200.0 mg/kg/injection, schedule: Q02DX009 (ip), vehicle: saline with Tween-80): 86 % of control
T/C (dose: 200.0 mg/kg/injection, schedule: Q02DX009 (ip), vehicle: saline): 87 % of control

CCCCCCCCCCCCCC[N+](C)(C)CCCCCCCCCCCCCC
T/C (dose: 6.0 mg/kg/injection, schedule: Q01DX009 (ip), vehicle: saline): 88 % of control

NC(=S)Nc1cccc2ccccc12
T/C [12]: 99 % of control
T/C [13]: 95 % of control
T/C [14]: 97 % of control

Nc1cccc2c1C(=O)c1cccc(NC(=O)c3ccccc3)c1C2=O
T/C [5]: 90 % of control
T/C [6]: 106 % of control
T/C (dose: 400.0 mg/kg/injection, schedule: Q01DX009 (ip), vehicle: Klucel (hydroxypropylcellulose) (HPC)): 90 % of control

Cc1ncc(CNC(=O)N(CCCl)N=O)c(N)n1
T/C (dose: 1.56 mg/kg/injection, schedule: Q01DX009 (ip), vehicle: suspension in saline): 155 % of control
T/C (dose: 3.12 mg/kg/injection, schedule: Q01DX009 (ip), vehicle: suspension in saline): 193 % of control
T/C (dose: 6.25 mg/kg/injection, schedule: Q01DX009 (ip), vehicle: suspension in saline): 279 % of control
T/C [7]: 164 % of control
T/C (dose: 12.5 mg/kg/injection, schedule: Q01DX009 (ip), vehicle: suspension in saline): 322 % of control

CCCC(C(=O)O)c1ccccc1C (stereo unspecified)
T/C [10]: 102 % of control
T/C [11]: 99 % of control
T/C (dose: 300.0 mg/kg/injection, schedule: Q01DX009 (ip), vehicle: saline with Tween-80): 106 % of control

O=C(NCCN1CC1)C(=O)NCCN1CC1
T/C (dose: 1.5 mg/kg/injection, schedule: Q01DX009 (ip), vehicle: saline with Tween-80): 153 % of control
T/C (dose: 3.12 mg/kg/injection, schedule: Q04DX003 (ip), vehicle: saline with Tween-80): 178 % of control
T/C (dose: 6.25 mg/kg/injection, schedule: Q04DX003 (ip), vehicle: saline with Tween-80): 168 % of control

CNc1ccc(C(=O)O)cc1OC
T/C (dose: 100.0 mg/kg/injection, schedule: Q04DX003 (ip), vehicle: saline with Tween-80): 95 % of control
T/C (dose: 200.0 mg/kg/injection, schedule: Q04DX003 (ip), vehicle: saline with Tween-80): 91 % of control
T/C (dose: 400.0 mg/kg/injection, schedule: Q04DX003 (ip), vehicle: saline with Tween-80): 90 % of control

Cc1ccc(NC(=O)Nc2ccccc2Cl)cc1Cl
T/C [9]: 100 % of control
T/C [5]: 104 % of control
